How the values were obtained:
Type in all cases: in vivo, human
[1] = system: patients with interstitial lung disease and pulmonary hypertension; assay: St. George's Respiratory Questionnaire, INCREASE
Description: (§1) The 6-minute walk test was performed and laboratory data were obtained at baseline and at weeks 4, 8, 12, and 16, or at the time of early discontinuation of treprostinil or placebo. Each 6-minute walk test was performed 10 to 60 minutes after the most recent dose of active drug or placebo, which is the time of peak plasma treprostinil exposure. A trough test was performed at week 15 at least 4 hours after the participant received a dose of treprostinil or placebo and at least 24 hours before the week 16 test. Pulse oximetry was performed immediately before, during, and after each 6-minute walk test. Measurement of N-terminal pro-B-type natriuretic peptide (NT-proBNP) levels and pulmonary function tests were performed at baseline and at weeks 8 and 16 (or at early discontinuation) after the patients recovered from the 6-minute walk test. The St. George's Respiratory Questionnaire (SGRQ), a quality-of-life measure, was completed at baseline and week 16 or at the time of early discontinuation.
The St. George's Respiratory Questionnaire has a range of results from 0 to 100, with higher scores indicating greater impairment and with a minimum clinically important difference of 4 points.
The changes from baseline in Total Score and each of the 3 domain scores were analyzed by parametric ANCOVA with no imputation for missing data.

NT-proBNP = assay: Plasma NT-proBNP level, INCREASE; conditions: for NT-proBNP treatment ratio (ratio of ratios between treatment groups): vs placebo, week 16
Description: We enrolled patients with interstitial lung disease and pulmonary hypertension (documented by right heart catheterization) in a multicenter, randomized, double-blind, placebo-controlled, 16-week trial. Patients were assigned in a 1:1 ratio to receive inhaled treprostinil, administered by means of an ultrasonic, pulsed-delivery nebulizer in up to 12 breaths (total, 72 μg) four times daily, or placebo. The primary efficacy end point was the difference between the two treatment groups in the change in peak 6-minute walk distance from baseline to week 16. Secondary end points included the change in N-terminal pro-B-type natriuretic peptide (NT-proBNP) level at week 16 and the time to clinical worsening.
as §1
The primary end point of the trial was the difference between the two groups in the change in peak 6-minute walk distance from baseline to week 16. Secondary efficacy end points were analyzed in the following hierarchical testing order: the change in NT-proBNP level from baseline to week 16, the time to clinical worsening, the change in 6-minute walk distance at peak plasma treprostinil level at week 12, and the change in 6-minute walk distance at trough treprostinil level at week 15. The time to clinical worsening was evaluated from the time of randomization until the patient's withdrawal from the trial and was defined as the time until the occurrence of any one of the following events: hospitalization for a cardiopulmonary indication, a decrease in 6-minute walk distance greater than 15% from baseline that was directly related to the disease under study at two consecutive visits and at least 24 hours apart, death from any cause, or lung transplantation.

[2] = system: patients with interstitial lung disease and pulmonary hypertension; assay: Supplemental oxygen use, INCREASE

CCCCC[C@H](O)CC[C@@H]1[C@H]2Cc3cccc(OCC(=O)O)c3C[C@H]2C[C@H]1O [Inhaled treprostinil, treprostinil]
St. George's Respiratory Questionnaire, Change from Baseline, Median ([1]; Week 16): −0.70
St. George's Respiratory Questionnaire, Value, Median ([1]; Week 16): 56.30
St. George's Respiratory Questionnaire, Change from Baseline, LS Mean (SE) ([1]; Week 16, ANCOVA): −1.30 (0.87)
St. George's Respiratory Questionnaire, Change from Baseline, Mean (SD) ([1]; Week 16, n 143): −1.25 (10.99)
St. George's Respiratory Questionnaire, Value, Mean (SD) ([1]; Week 16, n 143): 55.91 (17.07)
St. George's Respiratory Questionnaire, LS Mean Difference ([1]; week 16, vs placebo): −1.18, (1.25) (−3.63, 1.28)
between-group difference in patient-reported quality of life assessed with the SGRQ ([1]; week 16, vs placebo): no significant between-group difference
Change in plasma concentration of NT-proBNP from baseline to wk 16, Mean (±SD) change (NT-proBNP; 156 patients): -396.35 ± 1904.90 pg/mL
Change in plasma concentration of NT-proBNP from baseline to wk 16, Median (NT-proBNP; 156 patients): -22.65 pg/mL
reduction in NT-proBNP compared to placebo (NT-proBNP; Week 16): 42%
reduction in NT-proBNP levels from baseline (NT-proBNP; Week 16): 15%
NT-proBNP treatment ratio (ratio of ratios between treatment groups) (NT-proBNP; listed as Inhaled Treprostinil): ±0.58 ± 0.06
NT-proBNP treatment ratio (ratio of ratios between treatment groups) (NT-proBNP; listed as inhaled treprostinil): 0.58
NT-proBNP, Ratio to baseline (NT-proBNP; wk 16, LS mean of log-transformed data ± SE): 0.85 ± 0.06
Supplemental oxygen use During Walk (L/min), Change from Baseline, Median ([2]; Baseline During Walk): 0.0 L/min
Supplemental oxygen use During Walk (L/min), Value, Median ([2]; Baseline During Walk): 4.0 L/min
Supplemental oxygen use During Walk (L/min), Change from Baseline, Mean (SD) ([2]; Baseline During Walk, n 129): 0.1 (0.8) L/min
Supplemental oxygen use During Walk (L/min), Value, Mean (SD) ([2]; Baseline During Walk, n 129): 4.9 (4.0) L/min
Supplemental oxygen use Pre-walk (L/min), Change from Baseline, Median ([2]; Week 16): 0.0 L/min
Supplemental oxygen use Pre-walk (L/min), Value, Median ([2]; Week 16): 3.0 L/min
Supplemental oxygen use Pre-walk (L/min), Change from Baseline, Mean (SD) ([2]; Week 16, n 131): 0.4 (1.4) L/min
Supplemental oxygen use Pre-walk (L/min), Value, Mean (SD) ([2]; Week 16, n 131): 3.0 (2.5) L/min
treatment-related changes in supplemental oxygen use ([2]; over the trial period): no significant treatment-related changes

Source: patent US12697315B2, “Treatment for interstitial lung disease” (United Therapeutics Corporation, priority 2020, dated 2026)
